Marks after values point to notes of the source that are not given here.
Assays:
[1] = test system: T lymphocyte blast cells (CD3-Blasts); assay: CD3-Blast Chemotaxis Assay (transendothelial migration to MCP-1); type: cell-based, human; details: 10 μM compound; MCP-1 about 10 nM; ECV304 endothelial coated Transwells
Source text: Recombinant human MCP-1 was obtained from Peprotech (Rockey Hill, N.J.). T lymphocyte blast cells (CD3-Blasts) were generated by standard protocols (Coligan, J. E., A. M. Kruisbeek, D. H. Macgulies, E. M. Shevach, and W. Strober, editors. 1992. Current Protocols in Immunology. John Wiley and Sons, New York 7.1.2, 7.10.1-7.10. 10). Briefly, human peripheral blood mononuclear cells (PBMC) were isolated from heparinized venous blood by Percoll density gradient centrifugation (d=1.088) at room temperature. RBCs were removed by hypotonic lysis or dextran sedimentation. Blast cells were generated by incubating 2×10^6 PBMC in 24-well tissue culture plates that were coated with 2.5 μg of an anti-CD3 monoclonal antibody (identified as TR66, a gift from Dr. A. Lanzivecchia; similar monoclonal antibody is HIT3a, from Parmingen #30111A) at 37° C. for 48 to 72 hours, and then transferring 12 wells to T25 or T75 flasks with RPMI (Roswell Park Memorial Institute 1640, a growth cell medium available from Gibco/RBL, Inc., New York)+10% FCS (fetal calf serum)+50 units/ml IL-2. The cells are expanded and cultured for up to 3 weeks. CD3-Blast chemotaxis was assessed no sooner than 3 to 4 days after transfer to the IL-2 containing medium using a modification of a transendothelial migration assay (Carr. M. W., S. J. Roth, B. Luther, S. S. Rose, and T. A. Springer. 1994. Monocyte chemoattractant protein 1 acts as a T-lymphocyte chemoattractant. Proc. Natl. Acad. Sci. USA 91:3652-6). The endothelial cells used for this assay were the endothelial cell line ECV304. (ECV304 was from the European Collection of Animal Cell Cultures, Porton Downs, UK, assession #92091712). Endothelial cells were cultured on 6.5 mm diameter Transwell culture inserts (Costar) with a […] pore size. […] Background migration was determined by counting cells that migrated in the absence of MCP-1 in the lower chamber. […] The percent inhibition by compounds of directed migration was determined by the following formula: [drawing 32] […]

[2] = test system: T cell recruitment at sites of DHR; assay: Inhibition of T cell recruitment to rat skin inflammatory (DHR) sites; type: in vivo
Procedure: Inbred, approximately 200 g, male Lewis rats were used in all experiments. Cutaneous delayed hypersensitivity (DHR) was induced as previously described (1). Briefly, rats were sensitized to KLH (Sigma Chemical Co., St. Louis, Mo.) by administering 50 μg KLH in 0.1 mL complete Freund's adjuvant (CFA; Sigma Chemical Co.) into each of 4 subcutaneous sites. After 14 days, DHR was elicited by the challenge of 5 μg KLH in PBS into multiple intradermal sites on the back. Analysis was performed 24 hours after antigen challenge. For each experiment, there were at least three groups of animals of at least four animals in each group. […]
T cell recruitment at sites of DHR was quantified using methods previously described (1-4). […] The cells in the effluent were highly purified (>95%) rat T cells as assessed by anti-rat CD3 (monoclonal antibody KT3, Biosource International, Camarillo, Calif.) immunoreactivity by flow cytometry. […] Skin challenge sites (8 mm in diameter) were counted on a γ counter 24 hours after injection of radiolabeled T cells. Lung, liver, and spleen were also collected and counted as comparative indices for evaluation of input.
Statistical significance was determined using a paired Student's t-test. […]

## CCN(CC)CCN(CCN(CC)CC)c1ccc(-c2nc3cc(Cl)c(Cl)cc3[nH]2)cc1 [Example 1, N-[4-(5,6-dichloro-1H-benzimidazol-2-yl)-phenyl]-N-(2-diethylamino-ethyl)-N, N-diethyl-ethane-1,2-diamine]
[1]
  % Inhibition of Chemotaxis at 10 μM: 62-142* %
[2]; 30 and 23 mg/kg per os at the time of antigen challenge, 24 hour period (FIG. 2)
  inhibition of T cell recruitment in rat DHR: statistically significant inhibitory effect
[2]; administered once per os at the time of antigen challenge (FIG. 2)
  recruitment of 111In-labeled rat T cells to skin DHR sites: inhibited the recruitment of ^111In-labeled rat T cells to skin DHR sites in a dose-dependent fashion
